# Source: patent EP2646421B1, “7-NITRO-5-PHENYL-1-(PYRROLIDIN-1-YLMETHYL)-1H-BENZO[E][1,4]DIAZEPIN-2(3H)-ONE AND OTHER BENZODIAZEPINE DERIVATIVES” (Pignataro, Giuseppe, priority 2010, dated 2012)
# Assays:
# Format in all cases: cell-based
# [1] = molecular target: T1, NCX2 (Rattus norvegicus, UniProt P48768); assay: Fura-2 AM single-cell microfluorimetry, BHK-NCX2 cells; conditions: 10 nM (Fig. 2)
# T1 construct: expressed in transfected cells
# Experimental: (§1) The activity of NCX was established by means of three different subclones of baby hamsted kidney (BHK) cells that were stably transfected with one of each NCX isoforms, named BHK-NCX1, BHK-NCX2 and BHK-NCX3. These cell lines were grown on plastic dishes in a mix of DMEM and Ham's F12 media (1:1) (Gibco, Invitrogen, MI, Italy) supplemented with 5% fetal bovine serum, 100 U/ml penicillin, and 100 µg/ml streptomycin (Sigma, St. Louis, Missouri, USA). Cells were cultured in a humidified 5% CO2 atmosphere and at the temperature of 37°C.
# NCX activity has been measured considering the variation of intracellular concentrations of Ca^2+ ions ([Ca^2+]i) due to its activation by means of single-cell microfluorimetry. […] In both cases, this probe will produce an emission at 510 nm; the ratio between the two emission relative to 340 and 380 excitation allow to quantify [Ca^2+]i in the time considering the calibration curve previously performed. […]
# Briefly, BHK cells wild type and/or BHK trasnsfected with NCX mutants, grown on glass coverslips, were loaded with Fura-2 acetoxymethyl ester (Fura-2AM) (10 µM) for 30 minutes at 37°C in normal Krebs solution containing the following (in mM): 5.5 KCI, 160 NaCl, 1.2 MgCl2, 1.5 CaCl2, 10 glucose, and 10 Hepes-NaOH, pH 7.4. […] Fura-2 fluorescence intensity was measured every 3 seconds. […]
# [2] = molecular target: T2, NCX3 (Rattus norvegicus, UniProt P70549); assay: 45Ca2+ radiotracer fluxes (efflux/influx) in BHK-NCX3 cells
# T2 construct: expressed in transfected cells
# Experimental: as §1
# (§2) The activity of the Na^+/Ca^2+ exchanger was measured by means of ^45Ca^2+ radiotracer variations in the cytoplasm of cells exposed to a protocol stimulating the forward or the reverse mode of the antiporter. The BHK cells expressing each mutated or non-mutated NCX isoform were cultured in 12-well dishes and incubated in 145 mM NaCl for 10 minutes and then in a medium containing only 145 mM N-Methyl D-glucamine (NMDG) and 10 µM of ^45Ca^2+. This rapid substitution of the medium from a high level of Na^+ to another one without Na^+ allow the ^45Ca^2+ influx (reverse mode). Before the medium substitution cells was incubated with 1 mM ouabain, a Na^+/K^+ pump inhibitor, and 10 µM monensin, a ionophore for extracellular Na^+. After 30 seconds incubation, cells were washed with an ice-cold solution containing 2 mM La^3+ to stop ^45Ca^2+ uptake. The medium was removed and cells were subsequently lysed with 0.1 N NaOH and aliquots were taken to determine radioactivity and protein content.
# In order to measure NCX activity in the forward mode, cells were firstly loaded with ^45Ca^2+ and subsequently exposed to a chemical protocol to stimulate the efflux of the radiotracer in the extracellular medium. In particular, cells were loaded with ^45Ca^2+ by using a solution containing 1 µM ionomycin, 145 mM Na^+ and ^45Ca^2+. Next, cells were exposed to a Ca^2+-free solution containing 2 mM EGTA. […] After 60 second, cells were lysed with […] NaOH and aliquots were taken to determine cytoplasmatic radioactivity. […]
# [3] = molecular target: T3, NCX1 V117L (Canis lupus familiaris, UniProt P23685, V150L); assay: NCX1 point mutant activity (45Ca2+ uptake and Fura-2); conditions: single mutation, functional exchanger
# T3 construct: expressed in transfected cells
# Experimental: (§3) To identify the critical residues involved in drug sensitivity between NCX1 and NCX3 proteins, each residue in NCX1, in the regions α1 and α2, was substituted with the corresponding residue in NCX3.
# (§4) All experiments aimed to identify the binding site of neurounina-1 were performed on BHK cells stably transfected with a single NCX chimera or mutant.
# as §2, with “After 30 seconds incubation, cells were washed with an ice-cold solution containing 2 mM La^3+ to stop ^45Ca^2+ uptake.” left out
# (§5) Briefly, BHK cells wild type and/or BHK trasnsfected with NCX mutants, grown on glass coverslips, were loaded with Fura-2 acetoxymethyl ester (Fura-2AM) (10 µM) for 30 minutes at 37°C in normal Krebs solution containing the following (in mM): 5.5 KCI, 160 NaCl, 1.2 MgCl2, 1.5 CaCl2, 10 glucose, and 10 Hepes-NaOH, pH 7.4. […] Fura-2 fluorescence intensity was measured every 3 seconds. […] NCX activity was evaluated as Ca2+ uptake through the reverse mode by switching the normal Krebs medium containing thapsigargi (1µM) to Na^+-deficient NMDG+ medium (Na^+-free) containing (in mM): 5.5 KCI, 147 N-Methyl glucamine, 1.2 MgCl2, 1.5 CaCl2, 10 glucose, and 10 Hepes-NaOH (pH 7.4). All the results are presented as percentage of cytosolic Ca^2+ concentration increase above basal values and expressed as mean± S.E.M.
# [4] = molecular target: T4, NCX1 N124G (Canis lupus familiaris, UniProt P23685, N157G); assay: as above; conditions: single mutation, functional exchanger
# T4 construct: expressed in transfected cells
# Experimental: as §3, §4
# as §2, with “After 30 seconds incubation, cells were washed with an ice-cold solution containing 2 mM La^3+ to stop ^45Ca^2+ uptake.” left out
# as §5
# [5] = molecular target: T5, NCX1 L808F (Canis lupus familiaris, UniProt P23685, L840F); assay: as above; conditions: single mutation, functional exchanger
# T5 construct: expressed in transfected cells
# Experimental: as §3, §4
# as §2, with “After 30 seconds incubation, cells were washed with an ice-cold solution containing 2 mM La^3+ to stop ^45Ca^2+ uptake.” left out
# as §5
# T2 sequence (P70549 31-927): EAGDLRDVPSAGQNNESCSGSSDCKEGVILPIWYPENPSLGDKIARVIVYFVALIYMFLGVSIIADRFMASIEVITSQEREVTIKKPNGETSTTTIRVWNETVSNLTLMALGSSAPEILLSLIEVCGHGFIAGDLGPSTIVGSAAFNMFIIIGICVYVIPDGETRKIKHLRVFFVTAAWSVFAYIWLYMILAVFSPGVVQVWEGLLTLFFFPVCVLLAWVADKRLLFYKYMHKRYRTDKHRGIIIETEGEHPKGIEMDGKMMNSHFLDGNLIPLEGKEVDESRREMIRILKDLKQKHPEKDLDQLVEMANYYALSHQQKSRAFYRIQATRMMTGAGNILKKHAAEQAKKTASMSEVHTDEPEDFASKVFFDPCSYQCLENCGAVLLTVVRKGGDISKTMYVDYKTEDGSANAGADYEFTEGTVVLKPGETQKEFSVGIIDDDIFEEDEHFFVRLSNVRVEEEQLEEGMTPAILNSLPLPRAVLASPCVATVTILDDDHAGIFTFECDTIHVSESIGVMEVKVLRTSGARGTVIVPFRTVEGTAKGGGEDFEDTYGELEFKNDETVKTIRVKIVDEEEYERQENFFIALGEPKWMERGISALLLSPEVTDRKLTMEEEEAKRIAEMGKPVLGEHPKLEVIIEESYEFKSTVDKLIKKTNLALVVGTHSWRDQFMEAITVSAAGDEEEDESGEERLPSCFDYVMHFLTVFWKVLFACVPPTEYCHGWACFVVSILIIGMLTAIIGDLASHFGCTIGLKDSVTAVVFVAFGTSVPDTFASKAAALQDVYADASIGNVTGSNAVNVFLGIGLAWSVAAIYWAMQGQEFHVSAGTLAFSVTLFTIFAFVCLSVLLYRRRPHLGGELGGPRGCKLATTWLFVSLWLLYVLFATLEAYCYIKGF
# T3 sequence (P23685 33-970 V150L): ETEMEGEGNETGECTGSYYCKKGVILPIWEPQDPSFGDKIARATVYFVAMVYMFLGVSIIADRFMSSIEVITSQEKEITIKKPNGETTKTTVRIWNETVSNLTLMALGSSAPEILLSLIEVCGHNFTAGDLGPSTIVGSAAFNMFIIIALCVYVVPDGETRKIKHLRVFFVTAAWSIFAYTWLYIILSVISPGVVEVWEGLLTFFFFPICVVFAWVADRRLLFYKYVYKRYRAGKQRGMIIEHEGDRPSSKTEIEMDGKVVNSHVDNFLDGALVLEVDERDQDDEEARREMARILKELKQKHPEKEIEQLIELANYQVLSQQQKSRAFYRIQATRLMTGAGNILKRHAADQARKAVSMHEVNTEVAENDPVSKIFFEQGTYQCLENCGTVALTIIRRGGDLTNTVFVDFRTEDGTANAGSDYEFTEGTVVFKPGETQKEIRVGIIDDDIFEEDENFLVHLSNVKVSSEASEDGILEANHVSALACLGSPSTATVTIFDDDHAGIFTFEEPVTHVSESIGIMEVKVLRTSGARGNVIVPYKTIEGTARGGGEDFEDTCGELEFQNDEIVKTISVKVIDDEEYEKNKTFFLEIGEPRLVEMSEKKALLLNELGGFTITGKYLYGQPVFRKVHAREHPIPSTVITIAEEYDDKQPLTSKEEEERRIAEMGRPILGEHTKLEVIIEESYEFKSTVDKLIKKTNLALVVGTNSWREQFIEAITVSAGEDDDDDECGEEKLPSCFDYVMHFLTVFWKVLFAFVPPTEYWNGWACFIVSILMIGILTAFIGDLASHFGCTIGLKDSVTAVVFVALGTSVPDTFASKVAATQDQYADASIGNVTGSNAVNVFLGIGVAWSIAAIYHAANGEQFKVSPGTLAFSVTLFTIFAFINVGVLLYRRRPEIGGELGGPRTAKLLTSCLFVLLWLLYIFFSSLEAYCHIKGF
# T1 sequence (P48768 21-921): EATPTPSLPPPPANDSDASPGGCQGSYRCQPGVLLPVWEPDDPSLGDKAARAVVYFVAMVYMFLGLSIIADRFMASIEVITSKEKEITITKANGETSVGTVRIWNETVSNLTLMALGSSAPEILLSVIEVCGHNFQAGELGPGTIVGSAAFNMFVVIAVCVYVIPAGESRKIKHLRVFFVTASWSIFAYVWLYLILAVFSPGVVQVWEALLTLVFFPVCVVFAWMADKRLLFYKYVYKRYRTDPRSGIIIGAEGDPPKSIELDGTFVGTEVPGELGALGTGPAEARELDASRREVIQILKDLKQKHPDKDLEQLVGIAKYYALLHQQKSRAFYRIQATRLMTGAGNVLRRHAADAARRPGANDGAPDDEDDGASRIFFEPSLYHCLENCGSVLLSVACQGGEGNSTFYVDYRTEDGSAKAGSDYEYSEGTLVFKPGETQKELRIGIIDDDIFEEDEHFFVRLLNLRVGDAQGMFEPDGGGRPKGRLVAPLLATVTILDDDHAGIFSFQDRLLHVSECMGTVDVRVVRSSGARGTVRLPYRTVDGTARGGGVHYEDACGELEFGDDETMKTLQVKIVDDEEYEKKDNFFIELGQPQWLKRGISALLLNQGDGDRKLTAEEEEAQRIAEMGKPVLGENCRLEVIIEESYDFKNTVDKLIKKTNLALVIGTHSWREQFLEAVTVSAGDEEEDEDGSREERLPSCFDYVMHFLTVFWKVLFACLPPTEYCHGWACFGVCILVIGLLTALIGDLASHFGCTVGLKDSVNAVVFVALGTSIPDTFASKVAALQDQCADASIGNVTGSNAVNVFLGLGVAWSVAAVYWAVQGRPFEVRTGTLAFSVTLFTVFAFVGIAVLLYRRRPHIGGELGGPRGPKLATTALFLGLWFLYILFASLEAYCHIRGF
# T5 sequence (P23685 33-970 L840F): as the sequence (P23685 33-970 V150L) above, with L118V, L808F counted along it
# T4 sequence (P23685 33-970 N157G): as the sequence (P23685 33-970 V150L) above, with L118V, N125G counted along it
smiles,measurement,setting,value
"O=C1CN=C(c2ccccc2)c2cc([N+](=O)[O-])ccc2N1CN1CCCC1 [neurounina-1, 7-nitro-5-phenyl-1-(pyrrolidin-1-ylmethyl)-1H-benzo[e][1,4]diazepin-2(3H)-one]",increased reverse mode activity of NCX2,[1],40%
same,"activity of NCX3, forward mode","[2]; 45Ca2+ radiotracer, forward mode",did not significantly affect
same,"activity of NCX3, reverse mode","[2]; 45Ca2+ radiotracer, reverse mode",did not affect
same,NCX3 activity,"[2]; forward and reverse mode, patch clamp, Fura-2 microfluorimetry and 45Ca2+ fluxes (summary)",did not exert any effect
same,sensitivity of NCX1 mutant V117L,[3],insensible
same,sensitivity of NCX1 mutant N124G,[4],insensible
same,sensitivity of NCX1 mutant L808F,[5],insensible
